Key:
[1] = system: B. subtilis 168; assay: Bliss interaction score (quartile over a dose matrix) (fitness difference); higher = more antagonism (negative = synergy)
In short: (§1)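 OD595 was read at entry into stationary phase and expressed relative to the robust mean of the no-drug wells on the same plate, capped at 1. The resulting ratio is the fitness value. The Bliss score, observed fitness minus product-based expected fitness with single-drug fitness inferred from combinations, is summarised by quartiles over technical, biological and donor/recipient replicates.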

[2] = system: S. aureus DSM 20231; assay: as above
In short: as §1

[3] = system: S. pneumoniae D39V; assay: as above
In short: as §1

[4] = system: S. aureus Newman; assay: as above
In short: as §1

[5] = system: B. subtilis 168; assay: fitness (endpoint OD595 vs no drug) (fraction); higher = more growth
In short: (§2)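 Fitness was defined as the optical density at the transition into stationary phase relative to the robust mean of no-drug control wells. Values were capped at 1. Cultures were started at OD595 0.01 in 384-well plates (30 µl, or 55 µl for S. pneumoniae) in TSB, LB Lennox or CY at 37 °C. OD595 was recorded every 30 min over 14 h, with the first reading subtracted as background.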

[6] = system: S. aureus DSM 20231; assay: as above
In short: as §2

[7] = system: S. pneumoniae D39V; assay: as above
In short: as §2

[8] = system: S. aureus Newman; assay: as above
In short: as §2
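Wherever Bliss interaction score (quartile over a dose matrix) is given: first quartile when negative (synergy) and third quartile when positive (antagonism).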

CO/N=C(\C(=O)N[C@@H]1C(=O)N2C(C(=O)O)=C(COC(C)=O)CS[C@H]12)c1csc(N)n1 [Cefotaxime] + COc1c(N2C[C@@H]3CCCN[C@@H]3C2)c(F)cc2c(=O)c(C(=O)O)cn(C3CC3)c12 [Moxifloxacin]
Conditions	Bliss interaction score
[1]	0.0581
[2]	-0.0497
[3]	-0.0434
[4]	0.0354

one replicate
Conditions	fitness
[5], first compound 0.00775 µg/mL, partner 0.0312 µg/mL	0.0585
[5], first compound 0.00775 µg/mL, partner 0.0625 µg/mL	0.0377
[5], first compound 0.00775 µg/mL, partner 0.125 µg/mL	0.0204
[5], first compound 0.0155 µg/mL, partner 0.0312 µg/mL	0.0281
[5], first compound 0.0155 µg/mL, partner 0.0625 µg/mL	0.0221
[5], first compound 0.0155 µg/mL, partner 0.125 µg/mL	0.0115
[5], first compound 0.031 µg/mL, partner 0.0312 µg/mL	0.041
[5], first compound 0.031 µg/mL, partner 0.0625 µg/mL	0.028
[5], first compound 0.031 µg/mL, partner 0.125 µg/mL	0.0186
[6], first compound 0.039 µg/mL, partner 0.06 µg/mL	0.611
[6], first compound 0.039 µg/mL, partner 0.12 µg/mL	0.449
[6], first compound 0.078 µg/mL, partner 0.06 µg/mL	0.588
[6], first compound 0.078 µg/mL, partner 0.12 µg/mL	0.478
[6], first compound 0.156 µg/mL, partner 0.06 µg/mL	0.568
[6], first compound 0.156 µg/mL, partner 0.12 µg/mL	0.445
[6], first compound 0.312 µg/mL, partner 0.06 µg/mL	0.518
[6], first compound 0.312 µg/mL, partner 0.12 µg/mL	0.408
[8], first compound 0.039 µg/mL, partner 0.0075 µg/mL	0.669
[8], first compound 0.039 µg/mL, partner 0.015 µg/mL	0.529
[8], first compound 0.039 µg/mL, partner 0.03 µg/mL	0.0684

Conditions	fitness
[5], first compound 0.0625 µg/mL, partner 0.0312 µg/mL	0.0617
[5], first compound 0.0625 µg/mL, partner 0.0625 µg/mL	0.0437
[5], first compound 0.0625 µg/mL, partner 0.125 µg/mL	0.0547
[5], first compound 0.125 µg/mL, partner 0.0312 µg/mL	0.062
[5], first compound 0.125 µg/mL, partner 0.0625 µg/mL	0.044
[5], first compound 0.125 µg/mL, partner 0.125 µg/mL	0.05
[5], first compound 0.25 µg/mL, partner 0.0312 µg/mL	0.0545
[5], first compound 0.25 µg/mL, partner 0.0625 µg/mL	0.0527
[5], first compound 0.25 µg/mL, partner 0.125 µg/mL	0.0632
[5], first compound 0.5 µg/mL, partner 2 µg/mL	0.0626
[5], first compound 0.5 µg/mL, partner 4 µg/mL	0.0595
[5], first compound 0.5 µg/mL, partner 8 µg/mL	0.043
[5], first compound 1 µg/mL, partner 2 µg/mL	0.0496
[5], first compound 1 µg/mL, partner 4 µg/mL	0.0443
[5], first compound 1 µg/mL, partner 8 µg/mL	0.0259
[5], first compound 2 µg/mL, partner 2 µg/mL	0.0811
[5], first compound 2 µg/mL, partner 4 µg/mL	0.0907
[5], first compound 2 µg/mL, partner 8 µg/mL	0.0539
[6], first compound 0.039 µg/mL, partner 0.0075 µg/mL	0.674
[6], first compound 0.039 µg/mL, partner 0.015 µg/mL	0.612
[6], first compound 0.039 µg/mL, partner 0.03 µg/mL	0.543
[6], first compound 0.078 µg/mL, partner 0.0075 µg/mL	0.668
[6], first compound 0.078 µg/mL, partner 0.015 µg/mL	0.634
[6], first compound 0.078 µg/mL, partner 0.03 µg/mL	0.554
[6], first compound 0.156 µg/mL, partner 0.0075 µg/mL	0.636
[6], first compound 0.156 µg/mL, partner 0.015 µg/mL	0.603
[6], first compound 0.156 µg/mL, partner 0.03 µg/mL	0.536
[6], first compound 0.312 µg/mL, partner 0.0075 µg/mL	0.574
[6], first compound 0.312 µg/mL, partner 0.015 µg/mL	0.549
[6], first compound 0.312 µg/mL, partner 0.03 µg/mL	0.491
[7], first compound 0.0018 µg/mL, partner 0.005 µg/mL	0.979
[7], first compound 0.0018 µg/mL, partner 0.01 µg/mL	0.976
[7], first compound 0.0018 µg/mL, partner 0.02 µg/mL	0.987
[7], first compound 0.0018 µg/mL, partner 0.0312 µg/mL	0.13
[7], first compound 0.0018 µg/mL, partner 0.0625 µg/mL	0.0856
[7], first compound 0.0018 µg/mL, partner 0.125 µg/mL	0.0466
[7], first compound 0.0035 µg/mL, partner 0.005 µg/mL	0.973
[7], first compound 0.0035 µg/mL, partner 0.01 µg/mL	0.976
[7], first compound 0.0035 µg/mL, partner 0.02 µg/mL	0.964
[7], first compound 0.0035 µg/mL, partner 0.0312 µg/mL	0.108
[7], first compound 0.0035 µg/mL, partner 0.0625 µg/mL	0.0929
[7], first compound 0.0035 µg/mL, partner 0.125 µg/mL	0.0516
[7], first compound 0.007 µg/mL, partner 0.005 µg/mL	0.801
[7], first compound 0.007 µg/mL, partner 0.01 µg/mL	0.827
[7], first compound 0.007 µg/mL, partner 0.02 µg/mL	0.833
[7], first compound 0.007 µg/mL, partner 0.0312 µg/mL	0.0633
[7], first compound 0.007 µg/mL, partner 0.0625 µg/mL	0.0639
[7], first compound 0.007 µg/mL, partner 0.125 µg/mL	0.046
[8], first compound 0.078 µg/mL, partner 0.0075 µg/mL	0.657
[8], first compound 0.078 µg/mL, partner 0.015 µg/mL	0.498
[8], first compound 0.078 µg/mL, partner 0.03 µg/mL	0.0551
[8], first compound 0.156 µg/mL, partner 0.0075 µg/mL	0.558
[8], first compound 0.156 µg/mL, partner 0.015 µg/mL	0.432
[8], first compound 0.156 µg/mL, partner 0.03 µg/mL	0.046
[8], first compound 0.312 µg/mL, partner 0.0075 µg/mL	0.354
[8], first compound 0.312 µg/mL, partner 0.015 µg/mL	0.165
[8], first compound 0.312 µg/mL, partner 0.03 µg/mL	0.0657
[8], first compound 0.625 µg/mL, partner 0.0075 µg/mL	0.0357
[8], first compound 0.625 µg/mL, partner 0.015 µg/mL	0.019
[8], first compound 0.625 µg/mL, partner 0.03 µg/mL	0.0143
[8], first compound 1.25 µg/mL, partner 0.0075 µg/mL	0.0365
[8], first compound 1.25 µg/mL, partner 0.015 µg/mL	0.0045
[8], first compound 1.25 µg/mL, partner 0.03 µg/mL	0.0158
[8], first compound 2.5 µg/mL, partner 0.0075 µg/mL	0.0488
[8], first compound 2.5 µg/mL, partner 0.015 µg/mL	0.0142
[8], first compound 2.5 µg/mL, partner 0.03 µg/mL	0.0162

CO/N=C(\C(=O)N[C@@H]1C(=O)N2C(C(=O)O)=C(COC(C)=O)CS[C@H]12)c1csc(N)n1 [Cefotaxime] + Cc1ncc([N+](=O)[O-])n1CCO [Metronidazole]
Conditions	Bliss interaction score
[1]	0.0904
[2]	-0.0403
[3]	0.0575
[4]	0.0437

fitness, one replicate
Conditions	partner 0.625 µg/mL	partner 0.781 µg/mL	partner 1.25 µg/mL	partner 1.562 µg/mL	partner 2.5 µg/mL	partner 3.124 µg/mL
[5], first compound 0.00775 µg/mL	0.871	–	0.887	–	0.851	–
[5], first compound 0.0155 µg/mL	0.728	–	0.672	–	0.707	–
[5], first compound 0.031 µg/mL	0.553	–	0.576	–	0.594	–
[8], first compound 0.039 µg/mL	0.888	–	0.794	–	0.817	–
[8], first compound 0.078 µg/mL	–	0.714	–	0.756	–	0.788
[8], first compound 0.156 µg/mL	–	0.492	–	0.486	–	0.529
[8], first compound 0.312 µg/mL	0.248	0.305	0.311	0.397	0.329	0.361
[8], first compound 0.625 µg/mL	–	0.0599	–	0.0931	–	0.0887
[8], first compound 1.25 µg/mL	–	0.0419	–	0.0637	–	0.07
[8], first compound 2.5 µg/mL	–	0.0362	–	0.0976	–	0.0571

fitness
Conditions	partner 0.625 µg/mL	partner 1.073 µg/mL	partner 1.25 µg/mL	partner 2.145 µg/mL	partner 2.5 µg/mL	partner 4.29 µg/mL	partner 5 µg/mL
[5], first compound 0.5 µg/mL	0.299	–	0.289	–	0.278	–	–
[5], first compound 1 µg/mL	0.152	–	0.135	–	0.146	–	–
[5], first compound 2 µg/mL	0.0908	–	0.109	–	0.108	–	–
[6], first compound 0.039 µg/mL	0.825	–	0.888	–	0.963	–	–
[6], first compound 0.078 µg/mL	0.829	–	0.828	–	0.913	–	–
[6], first compound 0.156 µg/mL	0.689	–	0.745	–	0.813	–	–
[6], first compound 0.312 µg/mL	0.621	–	0.649	–	0.674	–	–
[7], first compound 0.0018 µg/mL	–	0.976	0.963	0.928	0.996	0.972	0.975
[7], first compound 0.0035 µg/mL	–	0.987	0.979	0.92	0.975	0.939	0.973
[7], first compound 0.007 µg/mL	–	0.95	0.961	0.89	0.99	0.933	0.953
[8], first compound 0.078 µg/mL	0.767	–	0.779	–	0.792	–	–
[8], first compound 0.156 µg/mL	0.663	–	0.705	–	0.674	–	–
